Marks after values point to notes of the source that are not given here.
Key:
punished responding = assay: Geller-Seifter conflict test; format: in vivo, Sprague-Dawley rats
Source text: This animal model of human anxiety utilizes a conditioned state of conflict in rats to ascertain the anxiolytic properties of drugs. Rats are conditioned to bar press for positive reinforcement under two schedules of behavior (Geller and Seifter, Psychopharmacologia 1:482-492 (1960)). The first includes bar pressing under a […] schedule without punishment. The second component is a fixed ratio schedule with each bar press resulting in a positive reinforcement and a punishment The punished component produces a state of conflict within the animal. […] An anxiolytic response would increase the punished responding without affecting the unpunished responding.
Male albino Sprague-Dawley rats (Charles River Labs, Wilmington, Mass.) weighing 250-300 g were used for conflict experiments and were kept on a restricted diet of Purina Lab Chow food pellets with water available at all times to maintain body weight at 85% of their free-feeding young adult levels. Rats were housed individually under a 12-hour light dark cycle with lights on from 0700-1900.
The ant-anxiety (punishment-lessening) and response depressant effects of compounds of the present invention were measured in rats by the conflict test of Geller and Seifter. In this 63-min test hungry rats perform a lever-press response to obtain a sweetened milk reward. The reinforcement schedule consists of punishment and nonpunishment components, alternating approximately every 15 min. Rats were trained in test chambers (Coulbourn instruments) with a lever mounted in one wall, a small dipper that delivered the 0.1-mL milk reward (1 part Eagle condensed milk:2 parts water), and a metal grid floor through which the foot-shock punishment was administered. A DEC PDP 11/73 minicomputer running SKED (State Systems) was used for programming and recording.
Rats initially learned to respond on a continuous reinforcement schedule and progressed rapidly to 30-sec, 1-min, and 2-min variable interval (VI) schedules. On the continuous reinforcement schedule, rats received milk reward following every lever press; on the VI schedules, milk rewards were available at infrequent and variable intervals, eventually at an average of once every 2 min. Four 3-min “conflict” periods were then introduced on the unpunished VI baseline; the first started after 3 min of VI performance and the others were alternated between 12-min periods of VI responding. During conflict periods, which were signalled by the presentation of a light and a tone, the continuous reinforcement schedule was again in force and each lever press delivered both a milk reward and a brief […] foot-shock punishment. […]

loss-of-righting reflex = assay: Anesthetic activity, loss-of-righting reflex; format: in vivo, mice; details: iv, 10 mg/kg
Experimental: The compounds of and used in the invention can also be used for anesthetic indications at high doses. However, the preferred route of administration to induce anesthesia is intravenous (i.v.) administration. In animals, a drug's anesthetic properties is measured by the drug's ability to produce a loss-of-righting reflex. The loss-of-righting reflex is defined as the inability of an animal to right itself within 30 seconds when placed on its back. Mice were administered drug i.v. in the lateral tail vein. Following administration, mice were placed on their backs and observed for loss-of-righting reflex.

[1] = system: metrazol induced convulsions; assay: Antimetrazol activity in mice; format: in vivo; details: 10 mg/kg, 50% hpbcd; for PTZ % Protected: i.p., 10 min; for % Protected: IP, 10 min before metrazol 85 mg/kg
Outline: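 Mice dosed with test compounds at various doses 10 minutes before metrazol (85 mg/kg) injection. Each animal observed for 30 minutes, recording time to onset of myoclonus (forelimb clonic activity).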

[2] = biological target: GABA receptor complex (GRC); assay: [35S]TBPS binding in rat cerebral cortex P2 homogenate; details: for IC50: concentration to inhibit 50% of control [35S]TBPS binding, 2 nM [35S]TBPS; for IMAX (maximum inhibition): maximum inhibition of [35S]TBPS binding
Outline: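 Male Sprague-Dawley rat cortical P2 homogenate (0.5 mg protein) incubated with 2 nM [35S]TBPS in 50 mM Na/K phosphate pH 7.4, 200 mM NaCl, with GABA plus (+)bicuculline, 90 min at 25 °C. Filter-bound radioactivity counted; non-specific binding with […]; IC50 and maximal inhibition by nonlinear regression.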

[3] = system: maximal electroshock tonic seizure; assay: Maximal electroshock test; format: in vivo, mice; details: 20 mg/kg, i.p., 10 min, 50% hpbcd
Source text: The anticonvulsant tests are similar to that described above.

[4] = system: time spent on the open-arms; assay: Elevated plus-maze test; format: in vivo, N.I.H. Swiss-Webster mice; details: IP, 50% hpbcd, 10 mg/kg
Source text: The theoretical basis for the elevated plus-maze test is similar to that of the fight/dark transition test. As it was described previously by Pellow et al. J. Neurosci. Meth. 14:149-167 (1985)), the elevated plus-maze apparatus is designed to utilize the mice's natural aversion to open spaces. The apparatus consists of two open-arms and two enclosed-arms. The elevated plus-maze test allows for two measures of anxiety, the number of entries into the open-arms and the time spent on the open-arms, both expressed as a percentage of the total number of entries and time spent in/on both the open-arms and enclosed-arms.
Male N.I.H Swiss-Webster mice (Harlan, Indianapolis, Ind.) weighing 15-20 g were housed four per cage in polyethylene cages with sawdust bedding. The colony room was environmentally controlled (22° C.) with a 12 hr light/dark cycle (0600-1800 hr). Food and water were available ad libitum, except during testing. The experiments were run from 0700-1500 hr and groups were counterbalanced for time of day effects. Mice were only administered drug or vehicle once.
The method used was previously described (Lister, Psychopharmacol. 92:180-185 (1987)). The apparatus included two open arms perpendicular to two enclosed arms elevated 50 cm from the floor. Each arm was 50 cm long and the walls of the enclosed arms were 40 cm tall. The maze was made completely of black plexiglass. Incandescent 200 W light bulbs were above each of the open arms to produce a strong contrast between the open arms and the enclosed arms.
[…] Swiss-Webster mice were placed in the center of the plus-maze facing an open arm. During the 5 min test period, the number of entries onto the open arms and the enclosed arms, and the time spent in the open arms and enclosed arms were measured. All four paws had to be within an arm for the dependent variable to be measured. Therefore, the time spent in the center of the maze is not counted, so the total time spent in the open arms and the enclosed arms may not equal 5 min.

[5] = data from Swinyard & Woodhead 1982; cited from earlier work

| SMILES | PTZ % Protected [1] | % Protected [1] [%] | IC50 [2] [nM] | IMAX (maximum inhibition) [2] [%] | MES % Protected [3] | Plus-Maze (% Control), time spent on the open-arms [4] [% Control] | further results |
| --- | --- | --- | --- | --- | --- | --- | --- |
| CCOC[C@@]1(O)CC[C@@]2(C)[C@@H](CC[C@@H]3[C@@H]2CC[C@]2(C)[C@@H](C(C)=O)CC[C@@H]32)C1 [3α-Hydroxy-3β-ethoxymethyl-5α-pregnan-20-one] | – | – | – | – | – | – | Geller/Seifter (% or control) (punished responding; IP, 50% hpbcd, 40 mg/kg): 3743 % or control |
| COC[C@@]1(O)CC[C@@]2(C)[C@@H](CC[C@@H]3[C@@H]2CC[C@]2(C)[C@@H](C(C)=O)CC[C@@H]32)C1 [3α-Hydroxy-3β-methoxymethyl-5α-pregnan-20-one] | – | – | – | – | – | – | Geller/Seifter (% or control) (punished responding; IP, 50% hpbcd, 10 mg/kg): 958 % or control |
| COCC1(O)CCC2(C)C(CCC3C2CCC2(C)C(OC)CCC32)C1 (stereo not drawn) [3α-Hydroxy-17β-methoxy-3β-methoxymethyl-5α-androstane] | 87.5^c % | 87.5 | 64 | 100 | 18.7^b % | 130 | Loss-of-Righting Reflex (%) (loss-of-righting reflex; 10% hpbcd): 50% |
| CO[C@H]1CC[C@H]2[C@@H]3CC[C@@H]4C[C@H](O)CC[C@]4(C)[C@H]3CC[C@]12C [3α-Hydroxy-17β-methoxy-5β-androstane] | 87.5^c % | – | 62 | 106 | 87.5^b % | 115 | melting point: 151 to 156 °C |
| COC1CCC2C3CCC4CC(O)(C#Cc5ccc(C(C)=O)cc5)CCC4C3CCC12C (stereo not drawn) [3β-(4′-Acetylphenylethynyl)-3α-hydroxy-17β-methoxy-19-nor-5β-androstane] | 12.5^c % | 31 | 8 | 96 | 25^b % | 156 | melting point: 148 to 150 °C |
| C#C[C@@]1(O)CC[C@@]2(C)[C@H](CC[C@@H]3[C@@H]2CC[C@]2(C)[C@@H](OC)CC[C@@H]32)C1 [3β-ethynyl-3α-hydroxy-17β-methoxy-5β-androstane] | 50^c % | 50 | 49 | 101 | 31.2^b % | 123 | Loss-of-Righting Reflex (%) (loss-of-righting reflex; 50% hpbcd): 50% |
| CC(=O)C1CCC2C3CCC4CC(O)(C(F)(F)F)CCC4(C)C3C(N(C)C)CC12C (stereo not drawn) [11α-N,N-Dimethylamino-3α-hydroxy-3β-trifluoromethyl-5β-pregnan-20-one] | – | – | – | – | – | – | Geller/Seifter (% or control) (punished responding; IP, citrate, 20 mg/kg): 145 % or control |
| CCC1(c2ccccc2)C(=O)NC(=O)NC1=O [Phenobarbital] | – | – | – | – | – | – | ED50 RR [5]: 69 mg/kg |
| COCC1(O)CCC2(C)C(CCC3C2CCC2(C)C(C(=O)CSS(=O)(=O)[O-])CCC32)C1.[Na+] (stereo not drawn) [Sodium S-(3α-hydroxy-3β-methoxymethyl-5α-pregnan-20-on-21-yl)thiosulfate] | – | – | – | – | – | – | Geller/Seifter (% or control) (punished responding; PO, water, 32 mg/kg): 4487.5 % or control |
| CCCC(CCC)C(=O)O [Valproate] | – | – | – | – | – | – | ED50 RR [5]: 514 mg/kg |
